Measurements published in patent publication US20260101897A1, “PLANT ENVIRONMENTAL STRESS TOLERANCE IMPROVEMENT AGENT AND ENVIRONMENTAL STRESS TOLERANCE IMPROVEMENT METHOD” (priority 2022, published 2026).

Experiments:
Type in all cases: in vivo
cotton = assay: Evaluation Example 3: tolerance to drying stress, leaf necrotizing; details: for Leaf necrotizing rate: test compound 0.1 mM (50 mL), 4 days after stoppage of water; for Leaf necrotizing rate / Environmental stress suppressing rate: drying stress Yes; for Environmental stress suppressing rate: test compound 0.1 mM
Method: (§1) EGT and GB were commercially available products, and pure water was used as a solvent.
In a plastic pot having a diameter of 60 mm and a height of 55 mm, 90 mL of granular soil (Kumiai horticultural soil) was placed, and one individual cotton (manufactured by TOHOKU SEED CO., LTD.) was seeded per pot.
They were managed in a greenhouse set at room temperature of 25° C. EGT in an amount of 50 mL or GB in an amount of 50 mL was added on the 23rd day after seeding, and drying stress was applied by stopping water supply for 4 days after 4 days from the addition of EGT or GB.
The leaves were collected 4 days after the stoppage of water and photographed with a digital camera. The photographed pictures of the leaves were analyzed with image analysis software WinROOF (manufactured by MITANI Corporation) to quantify the total leaf area and the green leaf area.
Using the above-described total leaf area and green leaf area, the leaf necrotizing rate after 4 days from the stoppage of water was evaluated. The leaf necrotizing rate and the environmental stress suppressing rate were calculated according to the following formulas.

turf (Manila grass) = assay: Evaluation Example 11: tolerance to ultraviolet stress, leaf mortality; details: for Environmental stress suppressing rate: ultraviolet stress Yes
Method: EGT (Examples 14 and 15, Comparative Examples 45 and 46) or GB (Comparative Examples 43, 44, 47 and 48) was prepared so as to have a concentration shown in Table 11 below. EGT and GB were commercially available products, and pure water was used as a solvent.
Turf (Manila grass) cut into a 50 mm square was placed on a petri dish and managed in a greenhouse at room temperature of 25° C. The plant height was trimmed to the length of 10 mm. 10 mL of EGT or 10 ml of GB was added per petri dish, and one day after that, ultraviolet stress was applied by exposure for one hour under irradiation with an ultraviolet lamp (GL-15, manufactured by Toshiba Corporation) with the intensity of ultraviolet radiation of a wavelength of 254 nm set to 525 μW/cm^−2.
Dead leaves were counted 7 days after the ultraviolet stress was applied, and the leaf mortality rate was evaluated as an index of physiological disorder. The leaf mortality rate and the environmental stress suppressing rate were calculated according to the following formulas.

[1] = tested on: Arabidopsis thaliana (Col-0); assay: Evaluation Example 4: tolerance to high temperature stress, plant mortality; details: for Environmental stress suppressing rate: high temperature stress Yes
Method: EGT (Example 5 and Comparative Example 13) or GB (Comparative Example 12 and Comparative Example 14) was prepared so as to have a concentration shown in Table 4 below. EGT and GB were commercially available products, and pure water was used as a solvent.
In a plastic pot having a diameter of 60 mm and a height of 55 mm, 80 mL of culture soil (manufactured by Hanagokoro Co., Ltd.) was put, and one individual Arabidopsis thaliana (Col-0) was seeded per pot. Plastic deep dishes each having a diameter of 160 mm and a height of 28 mm were prepared, and four pots were respectively placed therein.
(§2) They were located in a growth chamber set at room temperature of 22° C., and the light period was 16 hours and the dark period was 8 hours. The light conditions were set such that the light intensity was 5000 lx in the central part under irradiation with the fluorescent lamp. Water supply was conducted from the bottom, and the water level was set at about 5 mm. On the 41st day after seeding, 50 mL of EGT or 50 mL of GB was added, and one day after that, high temperature stress was applied by exposure to an environment of 42° C. for 3 hours.
The surviving plants were counted 12 days after the high temperature stress was applied, and the plant mortality rate was evaluated as an index of physiological disorder. The mortality rate and the environmental stress suppressing rate were calculated according to the following formulas.

[2] = tested on: Arabidopsis thaliana (Col-0); assay: Evaluation Example 5: tolerance to excessive nutrient stress, leaf wilting; details: for leaf wilting due to excessive nutrient stress, result in words: 0.5 mM; for Leaf wilting rate: test compound 0.5 mM (50 mL), excessive nutrient stress Yes (liquid fertilizer at 5-fold dilution), one day after stress; for Environmental stress suppressing rate: test compound 0.5 mM, excessive nutrient stress Yes
Method: as §1
One individual Arabidopsis thaliana (Col-0) was seeded in a plastic pot having a diameter of 60 mm and a height of 55 mm. Plastic deep dishes each having a diameter of 160 mm and a height of 28 mm were prepared, and four pots were respectively placed therein. As soil, 45 mL of vermiculite, 22.5 mL of granular soil (Kumiai horticultural soil), and 22.5 mL of vermiculite were placed in the pot in this order.
as §2, with “61st” for “41st”, “a liquid fertilizer (HYPONeX, manufactured by Hyponex Japan Corp., Ltd.)” for “high temperature stress”, “at a 5-fold dilution” for “by exposure”, “give excessive nutrient stress.” for “an environment of 42° C. for 3 hours.”
The number of wilted leaves was evaluated one day after the excessive nutrient stress was applied. The leaf wilting rate and the environmental stress suppressing rate were calculated according to the following formulas.

soybean plant = assay: Evaluation Example 6: tolerance to drying stress, leaf mortality; details: for Leaf mortality rate / Environmental stress suppressing rate: drying stress Yes; for Leaf mortality rate: 7 days after stoppage of water
Method: EGT and GB were commercially available products, and pure water was used as a solvent. In a 60 mm square plastic pot having a height of 66 mm, 150 ml of granular soil (Kumiai horticultural soil) was placed, and one individual soybean plant was seeded per pot. They were managed in a greenhouse set at room temperature of 25° C. EGT in an amount of 50 mL or GB in an amount of 50 mL was added on the 23rd day after seeding, and drying stress was applied by stopping water supply for 7 days after the addition of EGT or GB. Dead leaves were counted 7 days after the stoppage of water, and the leaf mortality rate was evaluated as an index of physiological disorder. The leaf mortality rate and the environmental stress suppressing rate were calculated according to the following formulas. [formula] [formula]

[3] = test compound 0.1 mM (10 mL), ultraviolet stress Yes (254 nm, one hour), 7 days after stress
[4] = test compound 0.1 mM, ultraviolet stress No
[5] = test compound 1 mM (10 mL), ultraviolet stress Yes (254 nm, one hour), 7 days after stress
[6] = test compound 1 mM, ultraviolet stress No
[7] = test compound 0.5 mM (50 mL), high temperature stress Yes (42° C. for 3 hours), 12 days after stress
[8] = test compound 0.5 mM, high temperature stress No

Structure (SMILES)	Leaf necrotizing rate (cotton) [%]	Environmental stress suppressing rate (cotton) [%]	Leaf mortality rate (turf (Manila grass); [3]) [%]	Leaf mortality rate (turf (Manila grass); [4]) [%]	Environmental stress suppressing rate (turf (Manila grass); test compound 0.1 mM) [%]	Leaf mortality rate (turf (Manila grass); [5]) [%]	Leaf mortality rate (turf (Manila grass); [6]) [%]	Environmental stress suppressing rate (turf (Manila grass); test compound 1 mM) [%]	Mortality rate [1, 7] [%]	Mortality rate [1, 8] [%]	Environmental stress suppressing rate ([1]; test compound 0.5 mM) [%]	leaf wilting due to excessive nutrient stress, result in words [2]	Leaf wilting rate [2] [%]	Environmental stress suppressing rate [2] [%]	Leaf mortality rate (soybean plant; test compound 0.1 mM (50 mL)) [%]	Environmental stress suppressing rate (soybean plant; test compound 0.1 mM) [%]	Leaf mortality rate (soybean plant; test compound 1 mM (50 mL)) [%]	Environmental stress suppressing rate (soybean plant; test compound 1 mM) [%]	also measured
C[N+](C)(C)[C@@H](Cc1c[nH]c(=S)[nH]1)C(=O)[O-] [EGT, L-(+)-ergothioneine]	26	50	13	2	79	6	0	90	25	0	67	suppressed	24	76	55	11	38	39	–
C[N+](C)(C)CC(=O)[O-] [GB, glycine betaine, reference compound]	68	0	54	2	14	59	0	6	75	0	0	hardly suppressed	89	11	71	0	62	0	necrotizing due to drying stress, result in words (cotton; 0.1 mM, drying stress): not suppressed; mortality rate due to ultraviolet stress, result in words (turf (Manila grass); GB 1 mM and 0.1 mM, ultraviolet stress): hardly suppressed; mortality rate due to high temperature stress, result in words ([1]; 0.5 mM, high temperature stress): not suppressed; mortality rate due to drying stress, result in words (soybean plant; GB 1 mM and 0.1 mM, drying stress): not suppressed
